The test system of the experiment is HT-29 cells. The experiment is described as follows: HT-29 necroptosis cell viability assay (TNF-α/SMAC mimetic/zVAD-FMK, CellTiter-Glo). In kind it is cell-based. The settings on record: Homo sapiens. A digest of the protocol: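 Necroptosis was triggered by TNF-α (10 ng/ml), SMAC mimetic (6 μM) and zVAD-FMK (10 μM) in serum-free medium during 20 h compound exposure (10 concentrations, threefold steps) of HT-29 cells. IC50 from duplicate dose-responses uses CellTiter-Glo ATP luminescence as viability read-out.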

[1] abbreviates: HT-29, HT-29 necroptosis cell viability, IC50 class symbols, read-out: Activity.
The mark [2] stands for this setting: HT-29 cells stimulated with TNF-α (10 ng/ml), SMAC mimetic (6 μM) and zVAD-FMK (10 μM), 20 hours, CellTiter-Glo ATP luminescence, geometric mean IC50 from 10 points, read-out: Activity.
Where [3] appears, read: HT-29, HT-29 cells, necroptosis induced by TNF-α/SMAC mimetic/zVAD-FMK, CellTiter-Glo, read-out: Activity (IC50 class).
Where [4] appears, read: HT-29, HT-29 necroptosis cell viability assay, class symbols for IC50, read-out: Activity.

Where two headings read alike, the source gives them in different places.

These results are taken from patent publication US20250179061A1 (SIRONAX LTD., priority 2022, published 2025).

On to `CC1(C#N)CN(c2cc(Oc3ccc(-n4ncn(Cc5c(F)cccc5F)c4=O)cc3F)c(F)cn2)C1` [Example 262, 1-(4-(4-(4-(2,6-difluorobenzyl)-5-oxo-4,5-dihydro-1H-1,2,4-triazol-1-yl)-2-fluorophenoxy)-5-fluoropyridin-2-yl)-3-methylazetidine-3-carbonitrile], for which the IC50 under setting [1] was below 100 nM.
Regarding `Cc1nc(C(N)=O)sc1Oc1ccc(-n2nc3n(c2=O)[C@H](c2ccccc2F)C[C@@H]3F)cc1F` (single isomer, unassigned) [Example 698], under setting [2], the IC50 is below 100 nM.
With `N#CCc1nc(COc2ccc(-n3ncn(Cc4c(F)cccc4F)c3=O)cc2F)cs1` [Example 655, 2-[4-[[4-[4-[(2,6-difluorophenyl)methyl]-5-oxo-1,2,4-triazol-1-yl]-2-fluoro-phenoxy]methyl]thiazol-2-yl]acetonitrile], the IC50 under setting [3] was in the range of 100 to 1000 nM.
`NC12CC(Nc3cc(Oc4ccc(-n5ncn(Cc6c(F)cccc6F)c5=O)cc4)ccn3)(C1)C2` [Example 354, 2-(4-((2-((3-aminobicyclo[1.1.1]pentan-1-yl)amino)pyridin-4-yl)oxy)phenyl)-4-(2,6-difluorobenzyl)-2,4-dihydro-3H-1,2,4-triazol-3-one]: the IC50 under setting [1] was in the range of 100 to 1000 nM.
Regarding `Cc1nc(C(C)(C)O)n(C)c1Oc1ccc(-n2ncn(Cc3c(F)cccc3F)c2=O)cc1F` [Example 133, 4-(2,6-difluorobenzyl)-2-(3-fluoro-4-((2-(2-hydroxypropan-2-yl)-1,4-dimethyl-1H-imidazol-5-yl)oxy)phenyl)-2,4-dihydro-3H-1,2,4-triazol-3-one], the IC50 under setting [4] was in the range of 100 to 1000 nM.
Turning to `COc1cc(Oc2ccc(-n3ncn(Cc4c(F)cccc4F)c3=O)cc2)cc(OC)n1` [Example 436, 4-(2,6-difluorobenzyl)-2-(4-((2,6-dimethoxypyridin-4-yl)oxy)phenyl)-2,4-dihydro-3H-1,2,4-triazol-3-one], the IC50 under setting [1] fell in the range of 100 to 1000 nM.
On to `Cc1nc(N2CCOC2=O)sc1Oc1ccc(-n2ncn(Cc3c(F)cccc3F)c2=O)cc1F` [Example 56, 3-(5-(4-(4-(2,6-difluorobenzyl)-5-oxo-4,5-dihydro-1H-1,2,4-triazol-1-yl)-2-fluorophenoxy)-4-methylthiazol-2-yl)oxazolidin-2-one], for which the IC50 under setting [2] was below 100 nM.
On the same count and under the same terms, the value for `Cc1nc(Oc2ccncc2)sc1-n1ncn(Cc2c(F)cccc2F)c1=O` [Example 11, 4-(2,6-difluorobenzyl)-2-(4-methyl-2-(pyridin-4-yloxy)thiazol-5-yl)-2,4-dihydro-3H-1,2,4-triazol-3-one] was above 10000 nM.
As to `Cc1cc(CO)n(Cc2ccc(-n3nc4n(c3=O)C(c3ccccc3)CC4)cc2F)n1` (centres unmarked) [Example 221, 2-(3-fluoro-4-((5-(hydroxymethyl)-3-methyl-1H-pyrazol-1-yl)methyl)phenyl)-5-phenyl-2,5,6,7-tetrahydro-3H-pyrrolo[2,1-c][1,2,4]triazol-3-one], under setting [4], the IC50 was 1000 to 10000 nM.
In the case of `CCOC(=O)c1nc(COc2ccc(-n3ncn(Cc4c(F)cccc4F)c3=O)cc2F)cs1` [Example 654, Ethyl 4-((4-(4-(2,6-difluorobenzyl)-5-oxo-4,5-dihydro-1H-1,2,4-triazol-1-yl)-2-fluorophenoxy)methyl)thiazole-2-carboxylate], the IC50 under setting [3] was 1000 to 10000 nM.
As for `Cc1nc(C#N)cn1Cc1ccc(-n2ncn(Cc3c(F)cccc3F)c2=O)cc1F` [Example 125, 1-(4-(4-(2,6-difluorobenzyl)-5-oxo-4,5-dihydro-1H-1,2,4-triazol-1-yl)-2-fluorobenzyl)-2-methyl-1H-imidazole-4-carbonitrile], the IC50 under setting [4] is below 100 nM.
In the case of `Cc1nc(NC23CC(C#N)(C2)C3)sc1Oc1ccc(-n2ncn(Cc3c(F)cccc3F)c2=O)cc1` [Example 45, 3-((5-(4-(4-(2,6-difluorobenzyl)-5-oxo-4,5-dihydro-1H-1,2,4-triazol-1-yl)phenoxy)-4-methylthiazol-2-yl)amino)bicyclo[1.1.1]pentane-1-carbonitrile], the IC50 under setting [2] was below 100 nM.
Consider `N#Cc1ccn(Cc2ccc(-n3ncn(Cc4c(F)cccc4F)c3=O)cc2)n1` [Example 209, 1-(4-(4-(2,6-difluorobenzyl)-5-oxo-4,5-dihydro-1H-1,2,4-triazol-1-yl)benzyl)-1H-pyrazole-3-carbonitrile], for which the IC50 under setting [4] was below 100 nM.
As for `Cc1nc(C(=O)N2CC(N)C2)sc1Oc1ccc(-n2ncn(Cc3ccccc3F)c2=O)cc1F` [Example 600, 2-(4-((2-(3-aminoazetidine-1-carbonyl)-4-methylthiazol-5-yl)oxy)-3-fluorophenyl)-4-(2-fluorobenzyl)-2,4-dihydro-3H-1,2,4-triazol-3-one], the IC50 under setting [4] is below 100 nM.
Take `CCOC1(C)CN(c2nccc(Oc3ccc(-n4ncn(Cc5c(F)cccc5F)c4=O)cc3Cl)c2Cl)C1` [Example 503, 2-(3-chloro-4-((3-chloro-2-(3-ethoxy-3-methylazetidin-1-yl)pyridin-4-yl)oxy)phenyl)-4-(2,6-difluorobenzyl)-2,4-dihydro-3H-1,2,4-triazol-3-one]: the IC50 under setting [4] was below 100 nM.
Turning to `Cc1ncsc1Oc1ncc(-n2ncn(Cc3c(F)cccc3F)c2=O)cc1F` [Example 644, 4-(2,6-difluorobenzyl)-2-(5-fluoro-6-((4-methylthiazol-5-yl)oxy)pyridin-3-y1)-2,4-dihydro-3H-1,2,4-triazol-3-one], under setting [3], the IC50 was below 100 nM.
Consider `C[C@H]1[C@H](C#N)CN1c1cc(Oc2ccc(-n3ncn(Cc4c(F)cccc4F)c3=O)cc2F)c(F)cn1` [Example 232, (2S,3R)-1-(4-(4-(4-(2,6-difluorobenzyl)-5-oxo-4,5-dihydro-1H-1,2,4-triazol-1-yl)-2-fluorophenoxy)-5-fluoropyridin-2-yl)-2-methylazetidine-3-carbonitrile], for which the IC50 under setting [1] was below 100 nM.
On to `Cc1nc(C(=O)NC2CCOC2)sc1Oc1ccc(-n2nc3n(c2=O)[C@H](c2ccccc2)CC3)cc1F` (single isomer, unassigned) [Example 18], for which the IC50 under setting [2] was below 100 nM.
`O=c1n(Cc2c(F)cccc2F)cnn1-c1ccc(Oc2ccnc(N3CC4(CCOCC4)C3)c2)cc1` [Example 339, 2-(4-((2-(7-oxa-2-azaspiro[3.5]nonan-2-yl)pyridin-4-yl)oxy)phenyl)-4-(2,6-difluorobenzyl)-2,4-dihydro-3H-1,2,4-triazol-3-one]: under setting [1], the IC50 is below 100 nM.
The same measure, in the same setting: the figure for `C[C@H]1[C@@H](N)CN1c1cc(Oc2ccc(-n3ncn(Cc4c(F)cccc4F)c3=O)cc2F)c(Cl)cn1` [Example 425, 2-(4-((2-((2S,3S)-3-amino-2-methylazetidin-1-yl)-5-chloropyridin-4-yl)oxy)-3-fluorophenyl)-4-(2,6-difluorobenzyl)-2,4-dihydro-3H-1,2,4-triazol-3-one] is below 100 nM.
On to `COC(=O)c1nc(C)c(Oc2ccc(-n3ncn(Cc4ncccc4C#N)c3=O)cc2F)s1` [Example 33, methyl 5-(4-(4-((3-cyanopyridin-2-yl)methyl)-5-oxo-4,5-dihydro-1H-1,2,4-triazol-1-yl)-2-fluorophenoxy)-4-methylthiazole-2-carboxylate], for which the IC50 under setting [2] fell in the range of 100 to 1000 nM.
Still for that read-out and setting: the figure for `Cc1nc(N2C[C@@H](O)[C@@H]2C)sc1Oc1ccc(-n2ncn(Cc3c(F)cccc3F)c2=O)cc1` [Example 50, 4-(2,6-difluorobenzyl)-2-(4-((2-((2S,3R)-3-hydroxy-2-methylazetidin-1-yl)-4-methylthiazol-5-yl)oxy)phenyl)-2,4-dihydro-3H-1,2,4-triazol-3-one] is below 100 nM.
As for `Cc1nc(C(=O)N2C[C@H](N)[C@@H]2C)sc1Oc1ccc(-n2ncn(Cc3ccccc3F)c2=O)cc1F` [Example 587, 2-(4-((2-((2S,3S)-3-amino-2-methylazetidine-1-carbonyl)-4-methylthiazol-5-yl)oxy)-3-fluorophenyl)-4-(2-fluorobenzyl)-2,4-dihydro-3H-1,2,4-triazol-3-one], the IC50 under setting [4] is below 100 nM.
Turning to `Cc1nc(C2(N)COC2)sc1Oc1ccc(-n2ncn(Cc3c(F)cccc3F)c2=O)cc1F` [Example 614, 2-(4-((2-(3-aminooxetan-3-yl)-4-methylthiazol-5-yl)oxy)-3-fluorophenyl)-4-(2,6-difluorobenzyl)-2,4-dihydro-3H-1,2,4-triazol-3-one], the IC50 under setting [4] was below 100 nM.
`Cc1cccnc1Cn1cnn(-c2ccc(Oc3sc(C(N)=O)nc3C)c(F)c2)c1=O` [Example 26, 5-(2-fluoro-4-(4-((3-methylpyridin-2-yl)methyl)-5-oxo-4,5-dihydro-1H-1,2,4-triazol-1-yl)phenoxy)-4-methylthiazole-2-carboxamide]: the IC50 under setting [2] is 100 to 1000 nM.
Consider `Cc1nc(N2CC(C)(NC(=O)OC(C)(C)C)C2)sc1C(=O)c1ccc(-n2ncn(Cc3c(F)cccc3F)c2=O)cc1` [Example 508, tert-butyl (1-(5-(4-(4-(2,6-difluorobenzyl)-5-oxo-4,5-dihydro-1H-1,2,4-triazol-1-yl)benzoyl)-4-methylthiazol-2-yl)-3-methylazetidin-3-yl)carbamate], for which, under setting [4], the IC50 lay within 100 to 1000 nM.
On the same count and under the same terms, the figure for `O=c1n(Cc2c(F)cccc2F)cnn1-c1ccc(Oc2ccnc(N3CCC34CCC4)c2)cc1` [Example 498, 2-(4-((2-(1-azaspiro[3.3]heptan-1-yl)pyridin-4-yl)oxy)phenyl)-4-(2,6-difluorobenzyl)-2,4-dihydro-3H-1,2,4-triazol-3-one] is 100 to 1000 nM.
With `Cc1nc(C(N)=O)sc1Oc1ccc(-n2nc3n(c2=O)[C@@H](c2ccccc2)CC3)cc1F` (single isomer, unassigned) [Example 15], under setting [2], the IC50 lay within 100 to 1000 nM.
In the case of `COC1(C)CN(c2nccc(Oc3ccc(-n4ncn(Cc5c(F)cccc5Cl)c4=O)cc3)c2F)C1` [Example 491, 4-(2-chloro-6-fluorobenzyl)-2-(4-((3-fluoro-2-(3-methoxy-3-methylazetidin-1-yl)pyridin-4-yl)oxy)phenyl)-2,4-dihydro-3H-1,2,4-triazol-3-one], the IC50 under setting [4] is below 100 nM.
